Target: T1, AtGID1c in the presence of GAI (Arabidopsis thaliana, UniProt Q940G6)
T1 construct: made in house; host or cells: E. coli (stated for AtGID1)
T1 sequence (Q940G6 1-344): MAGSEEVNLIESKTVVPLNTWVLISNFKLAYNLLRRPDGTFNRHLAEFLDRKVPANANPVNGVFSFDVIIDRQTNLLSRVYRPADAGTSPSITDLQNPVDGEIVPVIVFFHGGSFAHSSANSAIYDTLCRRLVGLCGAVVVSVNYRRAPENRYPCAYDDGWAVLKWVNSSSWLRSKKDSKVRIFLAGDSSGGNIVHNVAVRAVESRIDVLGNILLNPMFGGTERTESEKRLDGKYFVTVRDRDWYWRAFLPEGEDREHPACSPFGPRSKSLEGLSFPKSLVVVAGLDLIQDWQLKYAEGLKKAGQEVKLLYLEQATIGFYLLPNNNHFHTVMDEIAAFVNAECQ
T1 sequence (Q9LQT8 1-533 partner): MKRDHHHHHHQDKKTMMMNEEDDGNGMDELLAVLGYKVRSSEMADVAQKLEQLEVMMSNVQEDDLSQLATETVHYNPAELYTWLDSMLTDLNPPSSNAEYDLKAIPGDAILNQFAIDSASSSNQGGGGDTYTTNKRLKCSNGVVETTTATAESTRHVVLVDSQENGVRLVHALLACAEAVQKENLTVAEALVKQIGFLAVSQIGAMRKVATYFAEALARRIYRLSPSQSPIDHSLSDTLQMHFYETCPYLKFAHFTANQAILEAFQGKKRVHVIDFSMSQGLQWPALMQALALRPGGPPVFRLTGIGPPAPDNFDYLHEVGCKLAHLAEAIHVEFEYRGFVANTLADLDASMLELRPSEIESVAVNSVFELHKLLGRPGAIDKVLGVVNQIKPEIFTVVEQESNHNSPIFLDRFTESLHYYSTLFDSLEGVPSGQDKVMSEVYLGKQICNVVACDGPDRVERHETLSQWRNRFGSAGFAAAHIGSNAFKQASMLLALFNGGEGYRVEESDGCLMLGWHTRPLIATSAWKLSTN
Assay: Scatchard analysis of AtGID1c-GA binding in the presence of GAI
Protocol: Panel A) depicts AtGID1-AtDELLA interaction in the presence of GA in two types of yeast hybrid (Y2H) assays. Each AtGID1 was used as a bait while AtDELLA was a prey. GA4 (10^−5 M) was added to the medium. The bars indicates β-galactosidase activity when o-nitrophenol-β-D-galactopyranoside was used as a substrate (Assay B). The growth of each transformant in the defined medium for 2 days (Assay A) is shown beneath of each bar graph. The experiment was carried out in quadruplicate. The SD value shown in the figure was determined from three measurements. Panel B) depicts the dose response in AtGID1-RGA interaction in Assay B of Y2H. GA4 (10^−5 to 10^−9 M) was added to the medium. The experiment was conducted in […]. The SD value shown in the figure was determined from three measurements. Panel C) depicts the results of an evaluation of the in vitro GA-binding potency of AtGID1 using AtDELLA. […] GAI (G) or RGA (R) was added, and then the GA-binding activity in each reaction mixture was measured according to the standard method. […] The SD value was determined from three measurements. […]
Next, whether AtDELLAs exert some kind of influence on the GA-binding activity of AtGID1s was examined in vitro. After labeled 16,17-dihydro-GA4 and AtGID1s were combined, AtDELLAs were added to the solutions, and the GA-binding activity was measured. […]

Compound `CC1C[C@]23C[C@H]1CCC2[C@]12CC[C@H](O)[C@](C)(C(=O)O1)[C@H]2[C@@H]3C(=O)O` (stereo partly shown) [H2-GA4, 16,17-dihydro-GA4] has a Kd of 46 nM.

Reference: patent US7915050B2, “Regulatory genes for plant differentiation and growth, and use of the same” (National University Corporation Nagoya University, priority 2005, dated 2011)
